Measured values reported in PMC11345841, “Exploring 2-Sulfonylpyrimidine Warheads as Acrylamide Surrogates for Targeted Covalent Inhibition: A BTK Story” (Journal of Medicinal Chemistry, 2024).
Substitutions are numbered along the chain they refer to. Read-outs that look alike come from different tables or passages of the source.

What was measured:
Experiment in all cases: KINOMEscan ScanTK
Type in all cases: binding
[1] = target: T1, ABL1(H396P)-nonphosphorylated (Homo sapiens, UniProt P00519, H396P)
T1 construct: purchased Eurofins DiscoverX KINOMEscan (scanTK)

EPHA2 = target: T2, EPHA2 (Homo sapiens, UniProt P29317)
T2 construct: purchased Eurofins DiscoverX KINOMEscan (scanTK)
T2 sequence (P29317 24-976): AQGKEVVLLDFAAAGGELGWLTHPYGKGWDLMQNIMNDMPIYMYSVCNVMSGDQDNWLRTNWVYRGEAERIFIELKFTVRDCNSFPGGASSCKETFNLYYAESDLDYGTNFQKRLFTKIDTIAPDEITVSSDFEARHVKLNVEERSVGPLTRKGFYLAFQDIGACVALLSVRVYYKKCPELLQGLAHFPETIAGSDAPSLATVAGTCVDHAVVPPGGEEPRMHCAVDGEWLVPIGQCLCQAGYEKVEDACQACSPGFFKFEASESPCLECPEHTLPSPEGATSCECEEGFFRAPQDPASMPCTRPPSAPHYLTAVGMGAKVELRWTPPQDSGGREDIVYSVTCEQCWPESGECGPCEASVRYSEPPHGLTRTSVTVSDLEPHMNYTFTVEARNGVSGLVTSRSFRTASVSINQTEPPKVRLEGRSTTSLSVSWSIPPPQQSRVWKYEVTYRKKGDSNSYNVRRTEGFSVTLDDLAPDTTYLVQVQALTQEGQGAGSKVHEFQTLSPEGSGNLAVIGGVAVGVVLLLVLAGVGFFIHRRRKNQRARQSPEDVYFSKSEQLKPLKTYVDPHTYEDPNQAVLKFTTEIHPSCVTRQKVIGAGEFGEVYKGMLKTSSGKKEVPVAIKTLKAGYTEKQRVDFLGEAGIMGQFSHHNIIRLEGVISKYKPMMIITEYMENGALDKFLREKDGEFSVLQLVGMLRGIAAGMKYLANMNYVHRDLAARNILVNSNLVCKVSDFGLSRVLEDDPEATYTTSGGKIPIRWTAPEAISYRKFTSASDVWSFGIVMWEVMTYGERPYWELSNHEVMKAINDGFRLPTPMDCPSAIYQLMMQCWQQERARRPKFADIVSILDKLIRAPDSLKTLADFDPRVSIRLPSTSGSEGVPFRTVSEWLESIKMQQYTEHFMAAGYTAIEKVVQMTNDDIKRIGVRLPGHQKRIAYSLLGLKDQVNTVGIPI

EPHA7 = target: T3, EPHA7 (Homo sapiens, UniProt Q15375)
T3 construct: purchased Eurofins DiscoverX KINOMEscan (scanTK)

FGFR4 = target: T4, FGFR4 (Homo sapiens, UniProt P22455)
T4 construct: purchased Eurofins DiscoverX KINOMEscan (scanTK)

FLT3(D835Y) = target: T5, FLT3(D835Y) (Homo sapiens, UniProt P36888, D835Y)
T5 construct: purchased Eurofins DiscoverX KINOMEscan (scanTK)
T5 sequence (P36888 27-993 D835Y): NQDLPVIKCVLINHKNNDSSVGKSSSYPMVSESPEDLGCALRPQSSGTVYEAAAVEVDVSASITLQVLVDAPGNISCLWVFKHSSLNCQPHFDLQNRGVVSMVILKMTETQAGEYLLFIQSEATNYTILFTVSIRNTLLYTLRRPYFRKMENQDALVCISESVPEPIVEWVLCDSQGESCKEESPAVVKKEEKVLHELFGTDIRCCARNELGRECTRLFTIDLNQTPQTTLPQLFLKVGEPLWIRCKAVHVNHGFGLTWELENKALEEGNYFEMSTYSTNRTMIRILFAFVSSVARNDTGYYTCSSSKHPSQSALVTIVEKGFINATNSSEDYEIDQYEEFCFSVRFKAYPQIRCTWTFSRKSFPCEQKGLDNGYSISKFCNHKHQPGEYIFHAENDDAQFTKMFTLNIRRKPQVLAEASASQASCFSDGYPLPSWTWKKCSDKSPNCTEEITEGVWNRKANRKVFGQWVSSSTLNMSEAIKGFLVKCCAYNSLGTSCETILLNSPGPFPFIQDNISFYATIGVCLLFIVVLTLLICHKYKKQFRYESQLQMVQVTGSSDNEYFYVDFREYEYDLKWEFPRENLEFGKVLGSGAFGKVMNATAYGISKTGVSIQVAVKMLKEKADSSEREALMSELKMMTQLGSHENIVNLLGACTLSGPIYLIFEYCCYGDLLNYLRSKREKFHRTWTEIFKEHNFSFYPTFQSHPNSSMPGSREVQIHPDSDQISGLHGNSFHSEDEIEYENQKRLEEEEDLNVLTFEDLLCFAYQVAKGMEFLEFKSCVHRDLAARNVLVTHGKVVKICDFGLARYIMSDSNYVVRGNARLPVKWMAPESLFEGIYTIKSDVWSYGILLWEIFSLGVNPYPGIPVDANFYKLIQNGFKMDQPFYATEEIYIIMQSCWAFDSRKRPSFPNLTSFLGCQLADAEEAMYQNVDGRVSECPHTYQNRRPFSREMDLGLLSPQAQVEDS

FLT3(K663Q) = target: T6, FLT3(K663Q) (Homo sapiens, UniProt P36888, K663Q)
T6 construct: purchased Eurofins DiscoverX KINOMEscan (scanTK)
T6 sequence (P36888 27-993 K663Q): T5 sequence (P36888 27-993 D835Y) with K637Q, Y809D

FLT4 = target: T7, FLT4 (Homo sapiens, UniProt P35916)
T7 construct: purchased Eurofins DiscoverX KINOMEscan (scanTK)
T7 sequence (P35916 25-1363): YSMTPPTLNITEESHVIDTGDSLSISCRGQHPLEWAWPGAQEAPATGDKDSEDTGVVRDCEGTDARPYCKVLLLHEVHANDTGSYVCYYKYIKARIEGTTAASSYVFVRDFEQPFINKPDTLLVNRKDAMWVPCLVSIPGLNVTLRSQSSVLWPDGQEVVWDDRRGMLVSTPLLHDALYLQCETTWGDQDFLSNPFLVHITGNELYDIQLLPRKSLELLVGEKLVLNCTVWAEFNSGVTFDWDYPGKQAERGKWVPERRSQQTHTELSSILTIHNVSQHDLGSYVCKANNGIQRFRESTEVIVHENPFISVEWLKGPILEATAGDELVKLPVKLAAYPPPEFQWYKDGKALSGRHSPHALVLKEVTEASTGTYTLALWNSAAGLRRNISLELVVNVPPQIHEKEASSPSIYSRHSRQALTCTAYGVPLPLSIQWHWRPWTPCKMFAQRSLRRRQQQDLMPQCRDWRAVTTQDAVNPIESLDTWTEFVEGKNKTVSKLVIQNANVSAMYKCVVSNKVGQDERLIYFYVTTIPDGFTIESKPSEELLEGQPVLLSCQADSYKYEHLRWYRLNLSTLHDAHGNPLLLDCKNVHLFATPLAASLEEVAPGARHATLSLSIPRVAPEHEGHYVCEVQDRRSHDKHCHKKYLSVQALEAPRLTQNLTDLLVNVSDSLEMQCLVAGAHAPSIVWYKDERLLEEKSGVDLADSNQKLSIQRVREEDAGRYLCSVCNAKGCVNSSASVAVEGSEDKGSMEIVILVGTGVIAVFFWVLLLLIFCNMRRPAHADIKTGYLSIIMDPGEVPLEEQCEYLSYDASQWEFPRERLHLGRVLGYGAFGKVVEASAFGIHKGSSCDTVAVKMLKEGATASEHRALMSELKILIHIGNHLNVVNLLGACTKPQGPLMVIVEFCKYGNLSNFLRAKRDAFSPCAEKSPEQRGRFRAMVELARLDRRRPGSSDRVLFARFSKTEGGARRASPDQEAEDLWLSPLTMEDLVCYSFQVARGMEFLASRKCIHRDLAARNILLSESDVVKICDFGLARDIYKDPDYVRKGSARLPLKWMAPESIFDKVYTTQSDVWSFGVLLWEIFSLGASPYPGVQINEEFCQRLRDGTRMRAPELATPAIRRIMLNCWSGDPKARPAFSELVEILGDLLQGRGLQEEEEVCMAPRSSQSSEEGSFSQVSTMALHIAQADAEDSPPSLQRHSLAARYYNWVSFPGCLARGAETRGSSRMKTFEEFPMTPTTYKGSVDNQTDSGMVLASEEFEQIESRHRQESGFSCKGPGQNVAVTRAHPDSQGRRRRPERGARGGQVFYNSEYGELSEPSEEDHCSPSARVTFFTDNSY

[2] = target: T8, JAK1(JH2domain-pseudokinase) (Homo sapiens, UniProt P23458)
T8 construct: JAK1(JH2domain-pseudokinase); purchased Eurofins DiscoverX KINOMEscan (scanTK)
T8 sequence (P23458 583-855 limits assumed): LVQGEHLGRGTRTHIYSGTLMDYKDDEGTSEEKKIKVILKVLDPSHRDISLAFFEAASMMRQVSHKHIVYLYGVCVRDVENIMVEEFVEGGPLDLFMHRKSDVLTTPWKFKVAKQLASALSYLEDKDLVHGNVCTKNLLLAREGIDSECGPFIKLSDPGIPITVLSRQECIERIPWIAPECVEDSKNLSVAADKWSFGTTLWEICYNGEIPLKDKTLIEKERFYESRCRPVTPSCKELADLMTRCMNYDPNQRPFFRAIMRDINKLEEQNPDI

KIT-autoinhibited = target: T9, KIT-autoinhibited (Homo sapiens, UniProt P10721)
T9 construct: purchased Eurofins DiscoverX KINOMEscan (scanTK)
T9 sequence (P10721 26-976): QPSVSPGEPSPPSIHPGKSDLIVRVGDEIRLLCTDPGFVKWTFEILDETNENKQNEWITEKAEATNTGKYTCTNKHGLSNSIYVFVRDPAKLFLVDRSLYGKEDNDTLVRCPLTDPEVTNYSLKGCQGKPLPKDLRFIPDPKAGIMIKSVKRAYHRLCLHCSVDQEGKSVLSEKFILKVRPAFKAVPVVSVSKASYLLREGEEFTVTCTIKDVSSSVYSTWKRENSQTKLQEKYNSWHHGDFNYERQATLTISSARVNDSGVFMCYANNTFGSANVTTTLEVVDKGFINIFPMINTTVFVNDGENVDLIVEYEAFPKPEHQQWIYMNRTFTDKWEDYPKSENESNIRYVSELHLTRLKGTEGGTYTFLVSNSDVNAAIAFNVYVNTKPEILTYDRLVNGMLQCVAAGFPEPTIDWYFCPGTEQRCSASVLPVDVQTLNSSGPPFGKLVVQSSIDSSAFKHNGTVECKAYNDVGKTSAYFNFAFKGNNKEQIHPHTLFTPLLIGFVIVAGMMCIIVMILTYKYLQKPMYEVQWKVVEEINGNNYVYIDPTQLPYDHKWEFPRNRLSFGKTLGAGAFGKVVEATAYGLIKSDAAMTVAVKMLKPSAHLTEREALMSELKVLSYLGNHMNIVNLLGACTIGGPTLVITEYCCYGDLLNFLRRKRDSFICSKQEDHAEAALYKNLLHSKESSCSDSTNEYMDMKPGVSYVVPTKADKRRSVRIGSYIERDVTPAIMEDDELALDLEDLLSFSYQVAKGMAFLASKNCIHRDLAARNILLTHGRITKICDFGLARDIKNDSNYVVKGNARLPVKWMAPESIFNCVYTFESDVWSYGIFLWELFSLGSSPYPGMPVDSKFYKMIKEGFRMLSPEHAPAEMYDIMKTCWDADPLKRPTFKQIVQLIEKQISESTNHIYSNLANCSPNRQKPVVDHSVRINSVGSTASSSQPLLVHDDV

PYK2 = target: T10, PYK2 (Homo sapiens, UniProt Q14289)
T10 construct: purchased Eurofins DiscoverX KINOMEscan (scanTK)
T10 sequence (Q14289 whole entry): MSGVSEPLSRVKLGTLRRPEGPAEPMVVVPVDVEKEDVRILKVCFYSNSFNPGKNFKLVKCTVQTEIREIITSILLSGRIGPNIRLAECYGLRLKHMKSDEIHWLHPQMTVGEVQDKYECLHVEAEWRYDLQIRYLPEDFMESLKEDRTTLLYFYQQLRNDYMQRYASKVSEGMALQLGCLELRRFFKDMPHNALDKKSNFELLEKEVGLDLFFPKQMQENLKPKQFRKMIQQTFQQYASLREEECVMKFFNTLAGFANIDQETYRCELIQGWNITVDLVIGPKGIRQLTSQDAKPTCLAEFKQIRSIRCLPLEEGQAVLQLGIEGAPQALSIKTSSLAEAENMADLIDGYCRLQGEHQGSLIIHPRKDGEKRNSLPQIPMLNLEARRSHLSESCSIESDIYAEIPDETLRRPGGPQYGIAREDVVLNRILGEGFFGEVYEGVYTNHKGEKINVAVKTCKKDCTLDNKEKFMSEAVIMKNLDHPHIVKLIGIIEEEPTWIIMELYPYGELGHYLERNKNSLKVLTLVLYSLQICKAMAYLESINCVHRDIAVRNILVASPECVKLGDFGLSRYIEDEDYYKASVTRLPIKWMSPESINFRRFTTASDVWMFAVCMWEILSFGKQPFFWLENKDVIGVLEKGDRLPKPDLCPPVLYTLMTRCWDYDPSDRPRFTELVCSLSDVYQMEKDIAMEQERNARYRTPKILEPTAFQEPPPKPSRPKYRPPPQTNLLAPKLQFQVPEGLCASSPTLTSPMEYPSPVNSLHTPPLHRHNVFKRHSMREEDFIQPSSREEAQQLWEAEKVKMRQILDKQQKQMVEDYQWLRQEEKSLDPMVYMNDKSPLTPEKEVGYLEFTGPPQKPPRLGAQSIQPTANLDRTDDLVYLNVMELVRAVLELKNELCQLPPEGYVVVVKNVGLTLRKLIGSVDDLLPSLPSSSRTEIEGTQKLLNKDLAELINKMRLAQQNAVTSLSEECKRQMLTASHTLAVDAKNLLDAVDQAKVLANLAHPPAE

Compound | difference in %Control versus compound Ib at 1 µM ([1]; @1000nM) [%] | remaining binding at 1 µM ([1]; @1000nM, read-out: %Control) [%] | remaining binding at 1 µM ([1]; read-out: %Control @1000nM) [%] | difference in %Control versus compound Ib at 1 µM (EPHA2; @1000nM) [%] | remaining binding at 1 µM (EPHA2; @1000nM, read-out: %Control) [%] | remaining binding at 1 µM (EPHA2; read-out: %Control @1000nM) [%] | remaining binding at 1 µM (EPHA7; @1000nM, read-out: %Control) [%] | remaining binding at 1 µM (EPHA7; read-out: %Control @1000nM) [%] | remaining binding at 1 µM (FGFR4; @1000nM, read-out: %Control) [%] | remaining binding at 1 µM (FGFR4; read-out: %Control @1000nM) [%] | remaining binding at 1 µM (FLT3(K663Q); @1000nM, read-out: %Control) [%] | remaining binding at 1 µM (FLT3(K663Q); read-out: %Control @1000nM) [%] | remaining binding at 1 µM (FLT4; @1000nM, read-out: %Control) [%] | remaining binding at 1 µM (FLT4; read-out: %Control @1000nM) [%] | remaining binding at 1 µM ([2]; @1000nM, read-out: %Control) [%] | remaining binding at 1 µM ([2]; read-out: %Control @1000nM) [%] | remaining binding at 1 µM (KIT-autoinhibited; @1000nM, read-out: %Control) [%] | remaining binding at 1 µM (KIT-autoinhibited; read-out: %Control @1000nM) [%] | remaining binding at 1 µM (PYK2; @1000nM, read-out: %Control) [%] | remaining binding at 1 µM (PYK2; read-out: %Control @1000nM) [%] | further results
C=CC(=O)N1CCC[C@@H](n2nc(-c3ccc(Oc4ccccc4)cc3)c3c(N)ncnc32)C1 [Compound 1g, Ibrutinib, reference compound] |  | 14 | 14 |  | 100 | 100 | 95 | 95 | 96 | 96 | 44 | 44 | 27 | 27 | 95 | 95 | 88 | 88 | 100 | 100 | 
CNC(=O)c1cnc(S(C)(=O)=O)nc1N1CCCC(n2nc(-c3ccc(Oc4ccccc4)cc3)c3c(N)ncnc32)C1 (stereo not shown) [Compound 8d, 4-(3-(4-Amino-3-(4-phenoxyphenyl)-1H-pyrazolo[3,4-d]pyrimidin-1-yl)piperidin-1-yl)-N-methyl-2-(methylsulfonyl)pyrimidine-5-carboxamide] | 28 | 42 | 42 | -2 | 98 | 98 | 99 | 99 | 100 | 100 | 80 | 80 | 94 | 94 | 100 | 100 | 100 | 100 | 100 | 100 | difference in %Control versus compound Ib at 1 µM (EPHA7; @1000nM): 4%; difference in %Control from compound Ib at 1 µM (FGFR4; @1000nM): 4%; difference in %Control versus compound Ib at 1 µM (FLT3(D835Y); @1000nM): 10%; remaining binding at 1 µM (FLT3(D835Y); @1000nM, read-out: %Control): 59%; remaining binding at 1 µM (FLT3(D835Y); read-out: %Control @1000nM): 59%; difference in %Control from compound Ib at 1 µM (FLT3(K663Q); @1000nM): 36%; difference in %Control from compound Ib at 1 µM (FLT4; @1000nM): 67%; %Control difference versus compound Ib at 1 µM ([2]; @1000nM): 5%

Now from value to compound, other results behind:

difference in %Control versus compound Ib at 1 µM ([1]; @1000nM) [%] | remaining binding at 1 µM ([1]; @1000nM, read-out: %Control) [%] | remaining binding at 1 µM ([1]; read-out: %Control @1000nM) [%] | difference in %Control versus compound Ib at 1 µM (EPHA2; @1000nM) [%] | remaining binding at 1 µM (EPHA2; @1000nM, read-out: %Control) [%] | remaining binding at 1 µM (EPHA2; read-out: %Control @1000nM) [%] | remaining binding at 1 µM (EPHA7; @1000nM, read-out: %Control) [%] | remaining binding at 1 µM (EPHA7; read-out: %Control @1000nM) [%] | remaining binding at 1 µM (FGFR4; @1000nM, read-out: %Control) [%] | remaining binding at 1 µM (FGFR4; read-out: %Control @1000nM) [%] | remaining binding at 1 µM (FLT3(K663Q); @1000nM, read-out: %Control) [%] | remaining binding at 1 µM (FLT3(K663Q); read-out: %Control @1000nM) [%] | remaining binding at 1 µM (FLT4; @1000nM, read-out: %Control) [%] | remaining binding at 1 µM (FLT4; read-out: %Control @1000nM) [%] | remaining binding at 1 µM ([2]; @1000nM, read-out: %Control) [%] | remaining binding at 1 µM ([2]; read-out: %Control @1000nM) [%] | remaining binding at 1 µM (KIT-autoinhibited; @1000nM, read-out: %Control) [%] | remaining binding at 1 µM (KIT-autoinhibited; read-out: %Control @1000nM) [%] | remaining binding at 1 µM (PYK2; @1000nM, read-out: %Control) [%] | remaining binding at 1 µM (PYK2; read-out: %Control @1000nM) [%] | Compound | further results
41 | 55 | 55 | -2 | 98 | 98 | 97 | 97 | 91 | 91 | 100 | 100 | 100 | 100 | 99 | 99 | 94 | 94 | 81 | 81 | CCOC(=O)c1cnc(S(C)(=O)=O)nc1N1CCC[C@@H](n2nc(-c3ccc(Oc4ccccc4)cc3)c3c(N)ncnc32)C1 [Compound 8c, Ethyl (R)-4-(3-(4-Amino-3-(4-phenoxyphenyl)-1H-pyrazolo[3,4-d]pyrimidin-1-yl)piperidin-1-yl)-2-(methylsulfonyl)pyrimidine-5-carboxylate] | difference in %Control versus compound Ib at 1 µM (EPHA7; @1000nM): 2%; difference in %Control from compound Ib at 1 µM (FGFR4; @1000nM): -5%; difference in %Control versus compound Ib at 1 µM (FLT3(D835Y); @1000nM): 50%; remaining binding at 1 µM (FLT3(D835Y); @1000nM, read-out: %Control): 99%; remaining binding at 1 µM (FLT3(D835Y); read-out: %Control @1000nM): 99%; difference in %Control from compound Ib at 1 µM (FLT3(K663Q); @1000nM): 56%; difference in %Control from compound Ib at 1 µM (FLT4; @1000nM): 73%; %Control difference versus compound Ib at 1 µM ([2]; @1000nM): 4%
47 | 61 | 61 | -12 | 88 | 88 | 97 | 97 | 97 | 97 | 58 | 58 | 88 | 88 | 100 | 100 | 100 | 100 | 92 | 92 | Cc1cnc(S(C)(=O)=O)nc1N1CCCC(n2nc(-c3ccc(Oc4ccccc4)cc3)c3c(N)ncnc32)C1 (stereo not shown) [Compound 8a, 1-(1-(5-Methyl-2-(methylsulfonyl)pyrimidin-4-yl)piperidin-3-yl)-3-(4-phenoxyphenyl)-1H-pyrazolo[3,4-d]pyrimidin-4-amine] | difference in %Control versus compound Ib at 1 µM (EPHA7; @1000nM): 2%; difference in %Control from compound Ib at 1 µM (FGFR4; @1000nM): 1%; difference in %Control versus compound Ib at 1 µM (FLT3(D835Y); @1000nM): -4%; remaining binding at 1 µM (FLT3(D835Y); @1000nM, read-out: %Control): 45%; remaining binding at 1 µM (FLT3(D835Y); read-out: %Control @1000nM): 45%; difference in %Control from compound Ib at 1 µM (FLT3(K663Q); @1000nM): 14%; difference in %Control from compound Ib at 1 µM (FLT4; @1000nM): 61%; %Control difference versus compound Ib at 1 µM ([2]; @1000nM): 5%
55 | 69 | 69 | -1 | 99 | 99 | 93 | 93 | 92 | 92 | 73 | 73 | 89 | 89 | 99 | 99 | 90 | 90 | 85 | 85 | COC(=O)c1cnc(S(C)(=O)=O)nc1N1CCCC(n2nc(-c3ccc(Oc4ccccc4)cc3)c3c(N)ncnc32)C1 (stereo not shown) [Compound 8b, Methyl 4-(3-(4-Amino-3-(4-phenoxyphenyl)-1H-pyrazolo[3,4-d]pyrimidin-1-yl)piperidin-1-yl)-2-(methylsulfonyl)pyrimidine-5-carboxylate] | difference in %Control versus compound Ib at 1 µM (EPHA7; @1000nM): -2%; difference in %Control from compound Ib at 1 µM (FGFR4; @1000nM): -4%; difference in %Control versus compound Ib at 1 µM (FLT3(D835Y); @1000nM): 18%; remaining binding at 1 µM (FLT3(D835Y); @1000nM, read-out: %Control): 67%; remaining binding at 1 µM (FLT3(D835Y); read-out: %Control @1000nM): 67%; difference in %Control from compound Ib at 1 µM (FLT3(K663Q); @1000nM): 29%; difference in %Control from compound Ib at 1 µM (FLT4; @1000nM): 62%; %Control difference versus compound Ib at 1 µM ([2]; @1000nM): 4%
